This test has as its system Runx2. The test is described as follows: Runx2 activity, 6xOSE2-Luc luciferase reporter in transfected C2C12 cells. It is filed as cell-based, Mouse. As to conditions: 24 hrs; for fold induction at 2.5 µM / fold induction at 5 µM / fold induction at 10 µM / fold induction at 20 µM: Mus musculus, read-out: luciferase activity relative to control set as 1. How it is done:
Mouse premyoblast cell (C2C12 cell) was transfected using receptor vector 6xOSE2-Luc in order to investigate the activity of the amide compound of the present invention on Runx2.
Specifically, the receptor vector 6xOSE2-Luc was prepared by inserting an artificial promoter linked by six tandem copies of the OSE2 (osteoblast specific element-2) into vector pGL3 (Promega; Madison, Wis., U.S.A.), and then, cloned into the C2C12 cell to be transfected (Kim et al., Journal of Cellular Biochemistry, 91: 1239-1247, 2004). The OSE2 is the binding site of Runx2 in the promoter of osteocalcin which is a bone marker.
C2C12 cells (5,000 cells/well) were plated onto 96-well plates using 10% FBS (fetal bovine serum; Hyclone)-containing DMEM (Dulbecco's Modified Eagle's Medium), the medium was replaced with 5% FBS-containing DMEM after 24 hrs, and treated with each of the amide compounds obtained in Examples 1 to 94 at various concentrations of 2.5 μM, 5.0 μM, 10 μM, and 20 μM. As a control, dimethyl sulfoxide (DMSO) vehicle was applied to the cell in an amount same as that of the amide compound. After 24 hrs, the luciferase activity in the cell lysate was measured by using Dual-Luciferase Reporter Assay System (Promega). The luciferase activity of the amide compound of the present invention was calculated as a value relative to that observed for the control which was set as 1.
Background: In a reporter assay the amount or activity of a reporter protein is the signal.

Take `Cc1cc(C)cc(-c2cccc3c2CN(CCCCCC(=O)NO)C3=O)c1` [Example 41, N-hydroxy-6-(4-(3,5-dimethylphenyl)-1-oxoisoindolin-2-yl)hexanamide]: the fold induction at 2.5 µM (2.5 μM) stood at 2.5. The fold induction at 5 µM (5.0 μM) is 4.6. In addition, the fold induction at 10 µM (10 μM) stood at 12.4. Besides, the fold induction at 20 µM (20 μM) turned out to be 28.
Regarding `O=C(CCCCCN1Cc2c(cccc2-c2cc(F)cc(F)c2)C1=O)NO` [Example 42, 6-(4-(3,5-difluorophenyl)-1-oxoisoindolin-2-yl)-N-hydroxyhexanamide], the fold induction at 2.5 µM (2.5 μM) worked out at 3.1. Further, the fold induction at 5 µM (5.0 μM) came out at 10.8. In addition, the fold induction at 10 µM (10 μM) was 22.3. In addition, where the note is “20 μM”, the fold induction at 20 µM stood at 17.9.
Consider `O=C(CCCCCN1Cc2c(cccc2-c2cccnc2)C1=O)NO` [Example 43, N-hydroxy-6-(1-oxo-4-(pyridin-3-yl)isoindolin-2-yl)hexanamide], for which the fold induction at 2.5 µM (2.5 μM) was found to be 1.1. Further, for the setting “5.0 μM”, the fold induction at 5 µM worked out at 1.3. Further, the fold induction at 10 µM (10 μM) was found to be 1.8. Further, the fold induction at 20 µM (20 μM) came out at 3.2.
As to `O=C(CCCCCN1Cc2c(cccc2-c2ccc(C(F)(F)F)cc2)C1=O)NO` [Example 44, 6-(4-(4-(trifluoromethyl)phenyl)-1-oxoisoindolin-2-yl)-N-hydroxyhexanamide], for the setting “2.5 μM”, the fold induction at 2.5 µM turned out to be 1.2. Besides, for the setting “5.0 μM”, the fold induction at 5 µM amounted to 1.2. For the same compound, the fold induction at 10 µM (10 μM) is 1.3. For the same compound, the fold induction at 20 µM (20 μM) stood at 1.4.
For `Nc1ccc(-c2cccs2)cc1NC(=O)CCCCCN1Cc2c(cccc2-c2cncnc2)C1=O` [Example 47, N-(2-amino-5-(thiophen-2-yl)phenyl)-6-(1-oxo-4-(pyrimidin-5-yl)isoindolin-2-yl)hexanamide], the fold induction at 2.5 µM (2.5 μM) is 1.1. The fold induction at 5 µM (5.0 μM) turned out to be 1.2. Moreover, the fold induction at 10 µM (10 μM) was determined as 1.3. In addition, the fold induction at 20 µM (20 μM) stood at 1.6.
The like results for `COc1cc2c(c(-c3cccnc3)c1OC)CN(Cc1ccc(C(=O)Nc3cc(-c4cccs4)ccc3N)cc1)C2=O` [Example 48, N-(2-amino-5-(thiophen-2-yl)phenyl)-4-((5,6-dimethoxy-1-oxo-4-(pyridin-3-yl)isoindolin-2-yl)methyl)benzamide] were, in that order, 3.7, 7.2, 11.4 and 14.3.
For `O=C(CCCCCN1Cc2cc(-c3ccccc3)ccc2C1=O)NO` [Example 49, N-hydroxy-6-(1-oxo-5-phenylisoindolin-2-yl)hexanamide], where the note is “2.5 μM”, the fold induction at 2.5 µM is 4.8. Further, the fold induction at 5 µM (5.0 μM) was 10.6. The fold induction at 10 µM (10 μM) came to 28.1. Besides, under “20 μM”, the fold induction at 20 µM is 26.5.
The like results for `COc1ccc(-c2ccc3c(c2)CN(CCCCCC(=O)NO)C3=O)c(OC)c1` [Example 50, N-hydroxy-6-(5-(2,4-dimethoxyphenyl)-1-oxoisoindolin-2-yl)hexanamide] were, in that order, 1.9, 5, 22.1 and 42.7.
For the compound `COc1ccc(-c2ccc3c(c2)CN(CCCCCC(=O)NO)C3=O)cc1OC` [Example 51, N-hydroxy-6-(5-(3,4-dimethoxyphenyl)-1-oxoisoindolin-2-yl)hexanamide], where the note is “2.5 μM”, the fold induction at 2.5 µM was determined as 1.2. For the setting “5.0 μM”, the fold induction at 5 µM stood at 2.1. In addition, the fold induction at 10 µM (10 μM) amounted to 10.4. In addition, the fold induction at 20 µM (20 μM) is 26.4.
As for `Cc1cc(C)cc(-c2ccc3c(c2)CN(CCCCCC(=O)NO)C3=O)c1` [Example 52, N-hydroxy-6-(5-(3,5-dimethylphenyl)-1-oxoisoindolin-2-yl)hexanamide], where the note is “2.5 μM”, the fold induction at 2.5 µM is 2.4. Besides, the fold induction at 5 µM (5.0 μM) was 4.7. For the same compound, the fold induction at 10 µM (10 μM) stood at 12.6. The fold induction at 20 µM (20 μM) was 20.4.
With `O=C(CCCCCN1Cc2cc(-c3cc(F)cc(F)c3)ccc2C1=O)NO` [Example 53, 6-(5-(3,5-difluorophenyl)-1-oxoisoindolin-2-yl)-N-hydroxyhexanamide], under “2.5 μM”, the fold induction at 2.5 µM amounted to 1.7. For the same compound, under “5.0 μM”, the fold induction at 5 µM is 3. For the same compound, the fold induction at 10 µM (10 μM) worked out at 5.6. Also, the fold induction at 20 µM (20 μM) was determined as 13.3.
For the compound `O=C(CCCCCN1Cc2cc(-c3cccnc3)ccc2C1=O)NO` [Example 54, N-hydroxy-6-(1-oxo-5-(pyridin-3-yl)isoindolin-2-yl)hexanamide], for the setting “2.5 μM”, the fold induction at 2.5 µM was found to be 1.5. Also, the fold induction at 5 µM (5.0 μM) was 2.9. For the same compound, the fold induction at 10 µM (10 μM) came out at 8.9. The fold induction at 20 µM (20 μM) was 19.8.
Regarding `O=C(CCCCCN1Cc2cc(-c3ccc(C(F)(F)F)cc3)ccc2C1=O)NO` [Example 55, 6-(5-(4-(trifluoromethyl)phenyl)-1-oxoisoindolin-2-yl)-N-hydroxyhexanamide], for the setting “2.5 μM”, the fold induction at 2.5 µM was found to be 2.7. Further, the fold induction at 5 µM (5.0 μM) amounted to 3.7. The fold induction at 10 µM (10 μM) stood at 5.5. Besides, the fold induction at 20 µM (20 μM) worked out at 13.3.
As for `Nc1ccccc1NC(=O)c1ccc(CN2Cc3cc(Br)ccc3C2=O)cc1` [Example 56, N-(2-aminophenyl)-4-((5-bromo-1-oxoisoindolin-2-yl)methyl)benzamide], the fold induction at 2.5 µM (2.5 μM) was determined as 1.1. The fold induction at 5 µM (5.0 μM) is 1.1. In addition, the fold induction at 10 µM (10 μM) was determined as 1.1. For the same compound, the fold induction at 20 µM (20 μM) is 1.1.
With `Nc1ccccc1NC(=O)c1ccc(CN2Cc3cc(-c4ccccc4)ccc3C2=O)cc1` [Example 57, N-(2-aminophenyl)-4-((1-oxo-5-phenylisoindolin-2-yl)methyl)benzamide], for the setting “2.5 μM”, the fold induction at 2.5 µM was found to be 7.3. Moreover, the fold induction at 5 µM (5.0 μM) came out at 8.9. Where the note is “10 μM”, the fold induction at 10 µM came to 10.9. Besides, the fold induction at 20 µM (20 μM) worked out at 10.7.
In the same order, the values of `Nc1ccccc1NC(=O)c1ccc(CN2Cc3cc(-c4cncnc4)ccc3C2=O)cc1` [Example 58, N-(2-aminophenyl)-4-((1-oxo-5-(pyrimidin-5-yl)isoindolin-2-yl)methyl)benzamide] are 11.7, 17.1, 21.6 and 21.6.
The like results for `Nc1ccccc1NC(=O)c1ccc(CN2Cc3cc(-c4ccc(C(F)(F)F)cc4)ccc3C2=O)cc1` [Example 59, N-(2-aminophenyl)-4-((5-(4-(trifluoromethyl)phenyl)-1-oxoisoindolin-2-yl)methyl)benzamide] were, in that order, 3.3, 4.5, 4.1 and 3.8.
The like results for `Nc1ccccc1NC(=O)c1ccc(CN2Cc3cc(-c4cc(F)cc(F)c4)ccc3C2=O)cc1` [Example 60, N-(2-aminophenyl)-4-((5-(3,5-difluorophenyl)-1-oxoisoindolin-2-yl)methyl)benzamide] were, in that order, 5.4, 5.9, 7 and 8.6.
`Nc1ccccc1NC(=O)c1ccc(CN2Cc3cc(-c4cccnc4)ccc3C2=O)cc1` [Example 61, N-(2-aminophenyl)-4-((1-oxo-5-(pyridin-3-yl)isoindolin-2-yl)methyl)benzamide]: the fold induction at 2.5 µM (2.5 μM) worked out at 9.6. The fold induction at 5 µM (5.0 μM) amounted to 10.6. Moreover, the fold induction at 10 µM (10 μM) is 14.2. Besides, the fold induction at 20 µM (20 μM) was 15.6.
Take `Cc1cc(C)cc(-c2ccc3c(c2)CN(Cc2ccc(C(=O)Nc4ccccc4N)cc2)C3=O)c1` [Example 62, N-(2-aminophenyl)-4-((5-(3,5-dimethylphenyl)-1-oxoisoindolin-2-yl)methyl)benzamide]: the fold induction at 2.5 µM (2.5 μM) worked out at 4.6. Also, under “5.0 μM”, the fold induction at 5 µM was 5.8. In addition, the fold induction at 10 µM (10 μM) was 5.5. Further, where the note is “20 μM”, the fold induction at 20 µM is 6.6.
With `COc1ccc(-c2ccc3c(c2)CN(Cc2ccc(C(=O)Nc4ccccc4N)cc2)C3=O)cc1` [Example 63], the “luciferase activity relative to control set as 1” value reads like this: (2.5 μM) 8.3 fold; (5.0 μM) 10.3 fold; (10 μM) 13.1 fold; (20 μM) 14.2 fold.
With `COc1ccc(-c2ccc3c(c2)CN(Cc2ccc(C(=O)Nc4ccccc4N)cc2)C3=O)cc1OC` [Example 64, N-(2-aminophenyl)-4-((5-(3,4-dimethoxyphenyl)-1-oxoisoindolin-2-yl)methyl)benzamide], the fold induction at 2.5 µM (2.5 μM) turned out to be 11.3. The fold induction at 5 µM (5.0 μM) came out at 10.7. Besides, the fold induction at 10 µM (10 μM) was 10.1. Besides, the fold induction at 20 µM (20 μM) stood at 9.5.
In the same order, the values of `N#Cc1ccc(-c2ccc3c(c2)CN(Cc2ccc(C(=O)Nc4ccccc4N)cc2)C3=O)cc1` [Example 65, N-(2-aminophenyl)-4-[5-(4-cyanophenyl)-1-oxo-2,3-dihydro-1H-isoindol-2-yl]methylbenzamide] are 12.9, 15.7, 13.5 and 11.4.

These data come from US8716326B2, “Isoindolinone derivatives, preparation method thereof and a pharmaceutical composition comprising same” (Korea Research Institute of Chemical Technology, priority 2009, dated 2014).
